Test results taken from paper PMC4856274, “Mnn10 Maintains Pathogenicity in Candida albicans by Extending α-1,6-Mannose Backbone to Evade Host Dectin-1 Mediated Antifungal Immunity” (PLoS Pathogens, 2016).

Target: T1, Mnn10 (MBP-fused Mnn10) (Candida albicans, UniProt Q59UR2)
T1 construct: non-transmembrane region, residues 70-335, MBP fusion (pMAL-p5X), E. coli BL21 (DE3) pLysS, amylose resin; tag kept
Assay: mannosyltransferase assay, ANTS labelling of products, FACE gel
Assay type: biochemical
Details: 5 mM GDP-D-mannose, 10 mM α-1,6-D-mannobiose, 10 mM MnCl2, 50 mM HEPES pH 7.2, 30 °C, 1 h

T1 sequence (Q59UR2 entry or part of it): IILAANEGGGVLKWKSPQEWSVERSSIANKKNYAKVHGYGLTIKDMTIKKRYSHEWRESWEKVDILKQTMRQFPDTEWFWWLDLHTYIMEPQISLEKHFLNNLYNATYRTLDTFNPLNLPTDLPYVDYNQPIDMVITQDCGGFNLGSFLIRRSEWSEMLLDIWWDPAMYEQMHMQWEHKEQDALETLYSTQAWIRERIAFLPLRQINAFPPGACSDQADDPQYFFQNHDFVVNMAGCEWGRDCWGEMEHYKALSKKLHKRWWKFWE

## Nc1nc2c(ncn2[C@@H]2O[C@H](COP(=O)(O)OP(=O)(O)O[C@H]3O[C@H](CO)[C@@H](O)[C@H](O)[C@@H]3O)[C@@H](O)[C@H]2O)c(=O)[nH]1 [GDP-mannose]
donor
  mannosyltransferase assay, ANTS labelling of products, FACE gel: Mnn10 catalyzes the transformation of GDP-mannose to α-1,6-mannobiose to form mannotriose and mannotetraose

## OC[C@H]1O[C@H](OC[C@H]2OC(O)[C@@H](O)[C@@H](O)[C@@H]2O)[C@@H](O)[C@@H](O)[C@@H]1O (stereo partly drawn) [α-1,6-mannobiose]
acceptor
  mannosyltransferase assay, ANTS labelling of products, FACE gel: required α-1,6-linked mannobiose as an acceptor and GDP-mannose as a donor
